The text below walks through data of US4831049A, “Pyrrolizidine compounds, and their use as antiarrhythmic agents” (Suntory Limited, priority 1984, dated 1989).

Series [1] has as its system ventricular flutter and fibrillation. Description: Antiarrhythmic activity: prevention of ventricular flutter and fibrillation in mice caused to inhale chloroform. The series is classed as in vivo, male mice of ddy strain. Conditions: for ED50: Mus musculus, sc, 0.5 h, subcutaneous, 30 minutes before chloroform inhalation, Litchfield and Wilcoxon, 95% confidence limit in parentheses. As to the method: In accordance with the method described by J. W. Lawson [Journal of pharmacology and Experimental Therapeutics, 160, 22, (1966)], male mice of ddy strain were caused to inhale chloroform and when respiration was arrested, electrocardiography was performed to observe the ventricular flutter and fibrillation. These abnormalities of the cardiac ventricle are prevented if an antiarrhythmic agent is previously administered. Several different doses of the compound of this invention were subctaneously administered to mice in group of 29 to 40 animals and, after an interval of 30 minutes, the animals were caused to inhale chloroform. The prophylactic effects of these doses on ventricular flutter and fibrillation were estimated and the 50% effective dose (ED50) and its 95% confidence limit were calculated by the method of Litchfield and Wilcoxon [Journal of Pharmacology and Experimental Therapeutics 96, 99, (1949)].

A further series has as its system male mice. Description: 50% lethal dose (LD50) by the up and down method; therapeutic index. The series is classed as in vivo. To be noted: for Therapeutic index: ratio of LD50 to ED50.
Test in series [2]: as above
The series is classed as in vivo. To be noted: mouse, in vivo; male mice, bodyweight 18 to 22 g; up and down method.

As usually defined, the ED50 is the dose that gives a 50% effect, or the effect in half of the subjects. As a reminder, the LD50 is the dose expected to kill half of the subjects tested. Higher therefore signals lower toxicity. In the case of `Cc1cccc(C)c1NC(=O)C(C)C12CCCN1CCC2` (stereo not drawn) [N-(2,6-dimethylphenyl)-2-(8-pyrrolizidine)propionamide], in series [1], the ED50 stood at 23 mg/kg. The Therapeutic index with male mice amounted to 4.0. Besides, in series [2], the 50% lethal dose (LD50) turned out to be 92.1 mg/kg.

As for `Cc1cccc(C)c1NC(=O)C(c1ccccc1)C12CCCN1CCC2` (stereo not drawn), the median effective dose (ED50) in series [1] was determined as 3.1 mg/kg. For the same compound, the Therapeutic index in the series with male mice amounted to 7.1. The compound also showed an LD50 in series [2] of 22 mg/kg.

With `CCC(C(=O)Nc1c(C)cccc1C)C12CCCN1CCC2` (stereo not drawn), the 50% effective dose (ED50) in series [1] was 8.5 mg/kg. Also, the Therapeutic index with male mice was 3.1. The compound further had an LD50 in series [2] of 26 mg/kg.

For the compound `Cc1cccc(C)c1NC(=O)[C@H](C)C12CCCN1CCC2` [(2R)(-)SUN3341, N-(2,6-dimethylphenyl)-2-(8-pyrrolizidine)propionamide], the median effective dose (ED50) in series [1] stood at 2.6 mg/kg. Also, in series [1] (versus racemic compound [(±)-compound]), the “antiarrhythmic activity relative to the racemic compound” value is “approximately 9 times”. Further, the “toxicity relative to the racemic compound” value in the series with male mice (in words, versus racemic compound) was “comparable to the racemic compound in toxicity”. The Therapeutic index with male mice was found to be 26.0. Moreover, the “therapeutic index, in words” value in the series on male mice (versus racemic compound) was “remarkably improved therapeutic index”. This compound also came in with an LD50 in series [2] of 67.6 mg/kg.

For the compound `Cc1cccc(C)c1NC(=O)[C@@H](C)C12CCCN1CCC2` [(2S)(+)-SUN3341, N-(2,6-dimethylphenyl)-2-(8-pyrrolizidine)propionamide], the ED50 in series [1] is 24 mg/kg. Further, the Therapeutic index with male mice turned out to be 3.3. Moreover, the LD50 in series [2] is 79.3 mg/kg.

Regarding `Cc1ccc(NC(=O)C(C)C23CCCN2CCC3)cc1` (stereo not drawn), the ED50 in series [1] amounted to 115 mg/kg. In the series with male mice, the Therapeutic index turned out to be 3.4. In series [2], the median lethal dose (LD50) came to 400 mg/kg.
